Data: patent US12521393B2, “Cytotoxicity targeting chimeras for CCR2-expressing cells” (GLAXOSMITHKLINE INTELLECTUAL PROPERTY DEVELOPMENT LIMITED, priority 2021, dated 2026)

Assays:
[1] = molecular target: human alpha1 nicotinic acetylcholine (nACh) receptor (Homo sapiens, UniProt P02708); assay: Nicotinic acetylcholine receptor antagonism assay, IONFlux automated patch clamp (Example 203); type: cell-based; conditions: for IC50: antagonism of ACh-stimulated human alpha1 nAChR current, patch clamp; for Emax at 10 µM: maximum percentage antagonism at maximum concentration tested 10 μM, read-out: Maximum Response
Procedure, shortened: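 Cells expressing human α1 nAChR were incubated with a compound dose response (top 10 μM or 100 μM), then stimulated with ACh (10 mM), and peak current was read by automated patch clamp. % inhibition was taken against ACh-alone control, corrected for vehicle and run-down, and fit non-linearly for IC50; runs were averaged.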

[2] = test system: endogenous target monocytes in human PBMC; assay: PBMC ex vivo monocyte depletion flow cytometry assay (Example 200); type: cell-based; conditions: with anti-cotinine antibody (SEQ ID NO: 11/12), 18-24 hours, EC50 in molar, read-out: Ex Vivo Depletion Assay pEC50 (converted)
Procedure, shortened: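 Monocyte depletion is reported as pEC50, averaged or given individually across runs, and read by flow cytometry staining CD45, CD14 and CD4 with a viability dye. Compounds, diluted four-fold over 11 points from 1 mM DMSO stocks, were combined with 30 μg/mL Fc-enhanced anti-cotinine antibody and human PBMC, then incubated 18-24 h at 37° C.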

[3] = molecular target: anti-cotinine antibody (SEQ ID NO: 11/12, rabbit variable region with human IgG1 Fc DE mutation); assay: SPR binding of anti-cotinine antibody to ARM compounds, Biacore T200, 37° C. (Example 202); conditions: SPR Biacore T200, 37° C., pH 7.4, antibody SEQ ID NO: 11/12 captured on protein A; Kd in molar
Description: Anti-cotinine antibodies having a heavy chain sequence of SEQ ID NO: 11 and a light chain sequence of SEQ ID NO: 12 (rabbit variable region with human IgG1 Fc domain containing a DE mutation (S239D/1332E)) were captured on one or more flow cells of a protein A sensor chip (Cytiva) using a Biacore T200 while reserving flow cell 1 as a reference. Following capture, a 3000 second wait step was included to reduce drift during compound analysis. ARM compounds of Formula (I) were then injected at 100 μL/min with 200 and 2000 second association and dissociation times. The entire experiment was run at 37° C. with running buffer containing 10 mM HEPES pH 7.4, 150 mM NaCl, 0.005% P20 and 1% DMSO. ARM compounds of Formula (I) were titrated with a top concentration of 200 nM using a 3-fold 5-point dilution series and a corresponding 5-injection buffer cycle was run for blank subtraction. Data were double referenced by subtracting the response of the reference flow cell from that of the antibody-containing flow cell and subsequently subtracting the referenced blank sensorgrams. Following compound analysis, the surface was regenerated using a 30 second injection of pH 1.5 glycine at a flow rate of 30 μL/min after which antibody was re-captured. The experiment was run using Biacore T200 control software and evaluated using Biacore T200 Evaluation software. Curves were fit with a 1:1 kinetic binding model to obtain kon (1/Ms), koff(1/s), Kd (M) determined as koff/kon, and residence time determined as 1/koff (s).
Anti-cotinine antibody was tested for binding to ARMs compounds of Formula (I) of the invention in the above assay in or more experimental runs and the results are shown in Table 5 below. Affinity is reported as a pKd value. The pKd value is the negative log of the Kd value, wherein the Kd value is the dissociation constant measured in molar (M) as noted above. For compounds tested in more than one experimental run, the pKd value is reported as an average

Sequence of human alpha1 nicotinic acetylcholine (nACh) receptor (P02708 21-457): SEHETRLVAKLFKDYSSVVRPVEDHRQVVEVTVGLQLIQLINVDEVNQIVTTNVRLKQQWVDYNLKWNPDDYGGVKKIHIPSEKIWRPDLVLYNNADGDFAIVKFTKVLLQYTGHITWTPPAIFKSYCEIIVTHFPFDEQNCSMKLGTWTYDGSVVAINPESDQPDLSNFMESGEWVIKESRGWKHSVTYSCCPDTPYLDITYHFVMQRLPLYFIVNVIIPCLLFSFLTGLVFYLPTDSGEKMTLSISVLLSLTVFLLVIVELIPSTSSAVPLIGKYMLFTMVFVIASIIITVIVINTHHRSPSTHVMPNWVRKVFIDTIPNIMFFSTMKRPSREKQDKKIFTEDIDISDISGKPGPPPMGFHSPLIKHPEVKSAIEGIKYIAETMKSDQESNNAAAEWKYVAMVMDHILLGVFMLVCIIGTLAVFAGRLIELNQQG
Sequence of human alpha1 nicotinic acetylcholine (nACh) receptor (P11230 24-501 partner): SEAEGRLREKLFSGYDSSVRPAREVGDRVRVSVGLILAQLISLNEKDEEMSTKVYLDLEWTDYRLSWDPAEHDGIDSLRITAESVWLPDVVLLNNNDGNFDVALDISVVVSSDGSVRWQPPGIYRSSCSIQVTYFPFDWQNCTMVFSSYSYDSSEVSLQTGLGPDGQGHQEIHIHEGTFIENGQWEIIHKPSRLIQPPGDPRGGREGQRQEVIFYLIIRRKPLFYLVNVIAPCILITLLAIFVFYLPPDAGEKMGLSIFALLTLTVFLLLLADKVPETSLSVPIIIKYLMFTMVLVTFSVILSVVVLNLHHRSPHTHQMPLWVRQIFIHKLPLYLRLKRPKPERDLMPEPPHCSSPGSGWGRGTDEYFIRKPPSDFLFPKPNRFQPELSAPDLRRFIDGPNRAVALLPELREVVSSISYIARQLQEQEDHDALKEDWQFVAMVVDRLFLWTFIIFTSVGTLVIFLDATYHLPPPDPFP
Sequence of human alpha1 nicotinic acetylcholine (nACh) receptor (Q07001 22-517 partner): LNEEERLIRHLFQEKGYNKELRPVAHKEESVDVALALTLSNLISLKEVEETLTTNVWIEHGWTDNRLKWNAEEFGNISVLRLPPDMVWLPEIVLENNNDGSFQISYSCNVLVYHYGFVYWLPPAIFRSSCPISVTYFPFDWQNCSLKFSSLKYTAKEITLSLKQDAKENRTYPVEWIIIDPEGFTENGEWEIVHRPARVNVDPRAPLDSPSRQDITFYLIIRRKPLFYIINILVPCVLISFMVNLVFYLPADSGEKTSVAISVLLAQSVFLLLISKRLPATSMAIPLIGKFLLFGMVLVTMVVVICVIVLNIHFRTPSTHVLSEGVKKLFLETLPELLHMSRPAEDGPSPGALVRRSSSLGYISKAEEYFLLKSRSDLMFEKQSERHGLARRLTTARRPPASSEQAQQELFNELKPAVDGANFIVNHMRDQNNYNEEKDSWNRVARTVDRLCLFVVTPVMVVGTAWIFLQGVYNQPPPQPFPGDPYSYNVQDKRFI

| SMILES | IC50 [1] [nM] | Emax at 10 µM [1] [%] | EC50 [2] [nM] | pKd of Antibody for ARM Compound of Formula (I) [3] |
| --- | --- | --- | --- | --- |
| CC(C)N(C)[C@@H]1CC[C@H](N2CC[C@H](Nc3ncnc4ccc(C(F)(F)F)cc34)C2=O)[C@H](NC(=O)[C@H]2CC[C@H](C3CCN(C(=O)CCOCCOCCNC(=O)[C@H]4CC(=O)N(C)[C@@H]4c4cccnc4)CC3)CC2)C1 [Example 73, (2S,3S)-N-(2-(2-(3-(4-((1R,4r)-4-(((1R,2S,5R)-5-(Isopropyl(methyl)amino)-2-((S)-2-oxo-3-((6-(trifluoromethyl)quinazolin-4-yl)amino)pyrrolidin-1-yl)cyclohexyl)carbamoyl)cyclohexyl)piperidin-1-yl)-3-oxopropoxy)ethoxy)ethyl)-1-methyl-5-oxo-2-(pyridin-3-yl)pyrrolidine-3-carboxamide] | ≥ 10000 | 4.1 | 100000 | 9.8185 |
| CN1C(=O)C[C@H](C(=O)NCCOCC(=O)NCCOCC(=O)NCCOCCC(=O)N[C@@H]2C[C@H](NC(C)(C)C)CC[C@@H]2N2CC[C@H](Nc3ncnc4ccc(C(F)(F)F)cc34)C2=O)[C@H]1c1cccnc1 [Example 103, (2S,3S)-N-(18-(((1R,2S,5R)-5-(tert-Butylamino)-2-((S)-2-oxo-3-((6-(trifluoromethyl)quinazolin-4-yl)amino)pyrrolidin-1-yl)cyclohexyl)amino)-5,11,18-trioxo-3,9,15-trioxa-6, 12-diazaoctadecyl)-1-methyl-5-oxo-2-(pyridin-3-yl)pyrrolidine-3-carboxamide] | – | – | 100000 | 9.0985 |
| CC(C)N(C)[C@@H]1CC[C@H](N2CC[C@H](Nc3ncnc4ccc(C(F)(F)F)cc34)C2=O)[C@H](NC(=O)[C@H]2CC[C@@H](NC(=O)CCOCCNC(=O)CCCCNC(=O)[C@H]3CC(=O)N(C)[C@@H]3c3cccnc3)CC2)C1 [Example 198, (2S,3S)-N-(5-((2-(3-(((1S,4s)-4-(((1R,2S,5R)-5-(Isopropyl(methyl)amino)-2-((S)-2-oxo-3-((6-(trifluoromethyl)quinazolin-4-yl)amino)pyrrolidin-1-yl)cyclohexyl)carbamoyl)cyclohexyl)amino)-3-oxopropoxy)ethyl)amino)-5-oxopentyl)-1-methyl-5-oxo-2-(pyridin-3-yl)pyrrolidine-3-carboxamide] | – | – | 0.501 | 9.3835 |
| CC(C)N(C)[C@@H]1CC[C@H](N2CC[C@H](Nc3ncnc4ccc(C(F)(F)F)cc34)C2=O)[C@H](NC(=O)COCCNC(=O)CCNC(=O)COCCOCCNC(=O)[C@H]2CC(=O)N(C)[C@@H]2c2cccnc2)C1 [Example 79, (2S,3S)-N-(18-(((1R,2S,5R)-5-(Isopropyl(methyl)amino)-2-((S)-2-oxo-3-((6-(trifluoromethyl)quinazolin-4-yl)amino)pyrrolidin-1-yl)cyclohexyl)amino)-8,12,18-trioxo-3,6,16-trioxa-9,13-diazaoctadecyl)-1-methyl-5-oxo-2-(pyridin-3-yl)pyrrolidine-3-carboxamide] | – | – | 3.16 | 9.126 |
| CC(C)N(C)[C@@H]1CC[C@H](N2CC[C@H](Nc3ncnc4ccc(C(F)(F)F)cc34)C2=O)[C@H](NC(=O)CCOCCNC(=O)[C@H]2CC[C@@H](NC(=O)CCOCCNC(=O)[C@H]3CC(=O)N(C)[C@@H]3c3cccnc3)CC2)C1 [Example 110, (2S,3S)-N-(2-(3-(((1S,4R)-4-((2-(3-(((1R,2S,5R)-5-(Isopropyl(methyl)amino)-2-((S)-2-oxo-3-((6-(trifluoromethyl)quinazolin-4-yl)amino)pyrrolidin-1-yl)cyclohexyl)amino)-3-oxopropoxy)ethyl)carbamoyl)cyclohexyl)amino)-3-oxopropoxy)ethyl)-1-methyl-5-oxo-2-(pyridin-3-yl)pyrrolidine-3-carboxamide] | – | – | 0.0501 | 8.9085 |
| CC(C)N(C)[C@@H]1CC[C@H](N2CC[C@H](Nc3ncnc4ccc(C(F)(F)F)cc34)C2=O)[C@H](NC(=O)[C@H]2C[C@H](NC(=O)CCOC[C@H]3CC[C@H](COCCNC(=O)[C@H]4CC(=O)N(C)[C@@H]4c4cccnc4)CC3)C2)C1 [Example 54, (2S,3S)-N-(2-(((1R,4S)-4-((3-(((1R,3R)-3-(((1R,2S,5R)-5-(Isopropyl(methyl)amino)-2-((S)-2-oxo-3-((6-(trifluoromethyl)quinazolin-4-yl)amino)pyrrolidin-1-yl)cyclohexyl)carbamoyl)cyclobutyl)amino)-3-oxopropoxy)methyl)cyclohexyl)methoxy)ethyl)-1-methyl-5-oxo-2-(pyridin-3-yl)pyrrolidine-3-carboxamide] | – | – | 1 | 9.5515 |
| CC(C)N(C)[C@@H]1CC[C@H](N2CC[C@H](Nc3ncnc4ccc(C(F)(F)F)cc34)C2=O)[C@H](NC(=O)[C@H]2CC[C@@H](C3CCN(C(=O)CCOCCOCCNC(=O)[C@H]4CC(=O)N(C)[C@@H]4c4cccnc4)CC3)CC2)C1 [Example 72, (2S,3S)-N-(2-(2-(3-(4-((1S,4s)-4-(((1R,2S,5R)-5-(isopropyl(methyl)amino)-2-((S)-2-oxo-3-((6-(trifluoromethyl)quinazolin-4-yl)amino)pyrrolidin-1-yl)cyclohexyl)carbamoyl)cyclohexyl)piperidin-1-yl)-3-oxopropoxy)ethoxy)ethyl)-1-methyl-5-oxo-2-(pyridin-3-yl)pyrrolidine-3-carboxamide] | ≥ 10000 | 32.7 | 7.94 | 9.8865 |
| CC(C)N(C)[C@@H]1CC[C@H](N2CC[C@H](Nc3ncnc4ccc(C(F)(F)F)cc34)C2=O)[C@H](NC(=O)COCCOCCNC(=O)CCOCCOCCNC(=O)[C@H]2CC(=O)N(C)[C@@H]2c2cccnc2)C1 [Example 77, (2S,3S)-N-(1-(((1R,2S,5R)-5-(Isopropyl(methyl)amino)-2-((S)-2-oxo-3-((6-(trifluoromethyl)quinazolin-4-yl)amino)pyrrolidin-1-yl)cyclohexyl)amino)-1,10-dioxo-3,6,13,16-tetraoxa-9-azaoctadecan-18-yl)-1-methyl-5-oxo-2-(pyridin-3-yl)pyrrolidine-3-carboxamide] | ≥ 10000 | 19.6 | 6.31 | 9.152 |
| CC(C)N(C)[C@@H]1CC[C@H](N2CC[C@H](Nc3ncnc4ccc(C(F)(F)F)cc34)C2=O)[C@H](NC(=O)CCOCCOCCNC(=O)COCCNC(=O)CCNC(=O)[C@H]2CC(=O)N(C)[C@@H]2c2cccnc2)C1 [Example 75, (2S,3S)-N-(19-(((1R,2S,5R)-5-(Isopropyl(methyl)amino)-2-((S)-2-oxo-3-((6-(trifluoromethyl)quinazolin-4-yl)amino)pyrrolidin-1-yl)cyclohexyl)amino)-3,9,19-trioxo-7,13, 16-trioxa-4, 10-diazanonadecyl)-1-methyl-5-oxo-2-(pyridin-3-yl)pyrrolidine-3-carboxamide] | – | – | 1 | 9.103 |
